The values below come from US7608716B2, “Pyrazolonaphthyridine derivative” (Aska Pharmaceutical Co., Ltd., priority 2002, dated 2009).

Test system in the first series: not given
Assay: not given
Settings: not given
The melting point is the temperature, or range, at which the solid turns liquid. In turn, `Nc1cccc(-n2c(=O)c3c(CCc4ccncc4)n[nH]c3c3cccnc32)c1` [Example 8, 5-(3-aminophenyl)-3-[2-(pyridin-4-yl)ethyl]-1H-pyrazolo[4,3-c][1,8]naphthyridin-4 (5H)-one] displayed a melting point of 261 to 263 °C.
The same measure, in the same setting: the same measure for `O=C(O)c1cccc(CCc2n[nH]c3c2c(=O)n(-c2ccccc2)c2ncccc32)c1` [Example 38, 3-[2-(3-carboxyphenyl)ethyl]-5-phenyl-1H-pyrazolo[4,3-c][1,8]naphthyridin-4 (5H)-one]: 159 to 161 °C; for `O=c1c2c(Cc3ccccc3O)n[nH]c2c2cccnc2n1-c1ccccc1` [Example 42, 3-(2-hydroxybenzyl)-5-phenyl-1H-pyrazolo[4,3-c][1,8]-naphthyridin-4 (5H)-one]: 278 to 280 °C.
On the same count and under the same terms, the same measure for `CS(=O)(=O)Nc1ccc(CCc2n[nH]c3c2c(=O)n(-c2ccccc2)c2ncccc32)cc1` [Example 48, 3-[2-(4-methanesulfonylaminophenyl)ethyl]-5-phenyl-1H-pyrazolo[4,3-c][1,8]naphthyridin-4 (5H)-one]: 284 to 285 °C; for `CS(=O)(=O)Nc1ccc(Cc2n[nH]c3c2c(=O)n(-c2ccccc2)c2ncccc32)cc1` [Example 49, 3-(4-methanesulfonylaminobenzyl)-5-phenyl-1H-pyrazolo[4,3-c][1,8]naphthyridin-4 (5H)-one]: 306 to 307 °C.
Still for that read-out and setting: the same measure for `NC(=O)Nc1ccccc1CCc1n[nH]c2c1c(=O)n(-c1ccccc1)c1ncccc21` [Example 50, 5-phenyl-3-[2-(2-ureidophenyl)ethyl]-1H-pyrazolo[4,3-c][1,8]naphthyridin-4 (5H)-one]: 300 to 305 °C.

The test system of another series is T1, PDE IV isozymes separated from U937 culture cells.
T1 construct: PDE IV isozymes as used herein were separated from U937 culture cells by using an anion exchange chromatography
As to the kind of experiment: PDE IV inhibition ([3H]-cAMP hydrolysis). The format is biochemical. As to conditions: cAMP 1 μM substrate, 30° C., 20 minutes. How it is done: PDE IV isozymes as used herein were separated from U937 culture cells by using an anion exchange chromatography. Type IV PDE isozyme was admixed with ethylene glycol (EG) to adjust the final EG concentration to 30%, then stored at −20° C. and diluted when used. The enzymatic activity for PDE IV was measured using cAMP as a substrate.
Each test compound was dissolved in DMSO to adjust the final concentration to 1% (2.5 μl/tube).
Incubation Buffer Solution (pH7.5):
• Tris-HCl (50 mM), magnesium chloride (6 mM), dithiothreitol (2.5 mM), 5-nucleotidase (4 μg/ml), bovine serum albumin (0.23 mg/ml), and cAMP (1 μM).
A mixture of the aforementioned test compound solution and the buffer solution was incubated at 30° C. for 20 minutes. The reaction was quenched by admixing with 1 ml of anion exchange resin slurry (AG1-X8, 200-400 meshes, chloride form; Bio-Rad) to absorb unreacted substrates. After the reaction stopped, the mixture was centrifuged at 800×g for 10 minutes, and the resulting supernatant was collected with vials in 250 μl aliquots. To each vial was added 5 ml of ACS-II (scintillator, Amersham). The radioactivity was measured with a liquid scintillator counter for [^3H]-adenosine and set as the PDE IV activity.
The IC50 is the concentration at which inhibition is half-maximal. A higher IC50 goes with weaker potency in that assay. Compound `Nc1ccc(CCc2n[nH]c3c2c(=O)n(-c2ccccc2)c2ncccc32)cc1` [Example No. 13, 3-[2-(4-aminophenyl)ethyl]-5-phenyl-1H-pyrazolo[4,3-c][1,8]naphthyridin-4 (5H)-one] registered an IC50 of 0.031 µM.
Still for that read-out and setting: the same measure for `O=C(O)c1ccc(CCc2n[nH]c3c2c(=O)n(-c2ccccc2)c2ncccc32)cc1` [Example No. 14, 3-[2-(4-carboxyphenyl)ethyl]-5-phenyl-1H-pyrazolo[4,3-c][1,8]naphthyridin-4 (5H)-one]: 0.057 µM; for `COc1ccc(Cc2n[nH]c3c2c(=O)n(-c2ccccc2)c2ncccc32)cc1` [Example No. 21, 3-(4-methoxybenzyl)-5-phenyl-1H-pyrazolo[4,3-c][1,8]naphthyridin-4 (5H)-one]: 0.088 µM; for `COc1ccccc1Cc1n[nH]c2c1c(=O)n(-c1ccccc1)c1ncccc21` [Example No. 22, 3-(2-methoxybenzyl)-5-phenyl-1H-pyrazolo[4,3-c][1,8]naphthyridin-4 (5H)-one]: 0.026 µM.
The same measure, in the same setting: the same measure for `O=c1c2c(Cc3cccs3)n[nH]c2c2cccnc2n1-c1ccccc1` [Example No. 23, 3-(2-thienylmethyl)-5-phenyl-1H-pyrazolo[4,3-c][1,8]naphthyridin-4 (5H)-one]: 0.082 µM; for `O=c1c2c(Cc3ccccc3[N+](=O)[O-])n[nH]c2c2cccnc2n1-c1ccccc1` [Example No. 26, 3-(2-nitrobenzyl)-5-phenyl-1H-pyrazolo[4,3-c][1,8]naphthyridin-4 (5H)-one]: 0.02 µM; for `COc1ccc(OC)c(Cc2n[nH]c3c2c(=O)n(-c2ccccc2)c2ncccc32)c1` [Example No. 27, 3-(2,5-dimethoxybenzyl)-5-phenyl-1H-pyrazolo[4,3-c][1,8]naphthyridin-4 (5H)-one]: 0.021 µM.
Still for that read-out and setting: for `COc1ccc(Cc2n[nH]c3c2c(=O)n(-c2ccccc2)c2ncccc32)c(OC)c1` [Example No. 30, 3-(2,4-dimethoxybenzyl)-5-phenyl-1H-pyrazolo[4,3-c][1,8]naphthyridin-4 (5H)-one] the value was 0.049 µM.
`CCOC(=O)Cc1ccc(Cc2n[nH]c3c2c(=O)n(-c2ccccc2)c2ncccc32)cc1` [Example No. 32, 3-(4-ethoxycarbonylmethylbenzyl)-5-phenyl-1H-pyrazolo[4,3-c][1,8]naphthyridin-4 (5H)-one]: the half-maximal inhibitory concentration (IC50) is 0.028 µM.
